Legend:
soybean plants = assay: plant growth regulating activity on soybean plants; type: in vivo, variety Williams
Method: A number of soybean plants, variety Williams, were grown from seeds in plastic pots in the greenhouse for a period of one week at which time the plants are thinned to one plant per pot. When the second trifoliate leaf (three weeks) was fully expanded, the plants were treated with a solution of the active ingredient in acetone and water. Aqueous Tween 20 was used as a surfactant.
When the fifth trifoliate leaf (four to five weeks) was fully expanded, the treated plants were compared with the non-treated control plants and the observations recorded.

Crabgrass [1] = assay: pre-emergent herbicidal test; type: in vivo; details: T, 4 WAT; note: ranges in brackets are in %
Method: (§1) The pre-emergent test was conducted as follows:
(§2) A good grade of top soil was placed in aluminum pans and compactd to a depth of 0.95 to 1.27 cm. from the top of the pan. On the top of the soil was placed a predetermined number of seeds or vegetative propagules of various plant species. The soil required to level fill the pans after seeding or adding vegetative propagules was weighed into a pan. A known amount of the herbicidal active ingredient applied in a solvent or as a wettable powder and the soil were thoroughly mixed, and used as a cover layer for prepared pans. After treatment the pans were moved into a greenhouse bench where they were watered from below as needed to give adequate moisture for germination and growth.
(§3) A herbicidal rating code was used to signify the extent of phytotoxicity of each species. The ratings are defined as follows: […]

Hemp Sesbania [2] = assay: pre-emergent herbicidal test; type: in vivo; details: R, 4 WAT; note: ranges in brackets are in %
Method: as §1, §2, §3

Panicum Spp [3] = assay: pre-emergent herbicidal test; type: in vivo; details: S, 4 WAT; note: ranges in brackets are in %
Method: as §1, §2, §3

Rice [4] = assay: pre-emergent herbicidal test; type: in vivo; details: O, 4 WAT; note: ranges in brackets are in %
Method: as §1, §2, §3

Sorghum [5] = assay: pre-emergent herbicidal test; type: in vivo; details: P, 4 WAT; note: ranges in brackets are in %
Method: as §1, §2, §3

Soybean [6] = assay: pre-emergent herbicidal test; type: in vivo; details: L, 4 WAT; note: ranges in brackets are in %
Method: as §1, §2, §3

Sugar Beet [7] = assay: pre-emergent herbicidal test; type: in vivo; details: M, 4 WAT; note: ranges in brackets are in %
Method: as §1, §2, §3

Wheat [8] = assay: pre-emergent herbicidal test; type: in vivo; details: N, 4 WAT; note: ranges in brackets are in %
Method: as §1, §2, §3

Wild Buckwheat [9] = assay: pre-emergent herbicidal test; type: in vivo; details: Q, 4 WAT; note: ranges in brackets are in %
Method: as §1, §2, §3

Crabgrass [10] = assay: post-emergent herbicidal test; type: in vivo; details: T; note: ranges in brackets are in %
Method: (§4) The post-emergent tests were conducted as follows:
(§5) The herbicidal active ingredients are applied in spray form to two or three-week old specimens of various plant species. The spray, a solution or wettable powder suspension containing the appropriate rate of herbicidal active ingredient to give the desired test rate and a surfactant, is applied to the plants. The treated plants are placed in a greenhouse and approximately two or four weeks later the effects are observed and recorded. The results are shown in Tables IX and X in which the post-emergent herbicidal rating code is as follows: […]

Hemp Sesbania [11] = assay: post-emergent herbicidal test; type: in vivo; details: R; note: ranges in brackets are in %
Method: as §4, §5

Panicum Spp [12] = assay: post-emergent herbicidal test; type: in vivo; details: S; note: ranges in brackets are in %
Method: as §4, §5

Rice [13] = assay: post-emergent herbicidal test; type: in vivo; details: O; note: ranges in brackets are in %
Method: as §4, §5

Sorghum [14] = assay: post-emergent herbicidal test; type: in vivo; details: P; note: ranges in brackets are in %
Method: as §4, §5

Soybean [15] = assay: post-emergent herbicidal test; type: in vivo; details: L; note: ranges in brackets are in %
Method: as §4, §5

Sugar Beet [16] = assay: post-emergent herbicidal test; type: in vivo; details: M; note: ranges in brackets are in %
Method: as §4, §5

Wheat [17] = assay: post-emergent herbicidal test; type: in vivo; details: N; note: ranges in brackets are in %
Method: as §4, §5

Wild Buckwheat [18] = assay: post-emergent herbicidal test; type: in vivo; details: Q; note: ranges in brackets are in %
Method: as §4, §5

COC(=N)CCCn1c(=O)sc2ccccc21 [Compound 18] was tested, and the “plant growth regulant observations” value (soybean plants; 0.112 kg/h) was “No response” and the “plant growth regulant observations” value (soybean plants; 0.56 kg/h) was “No response”.

In the case of COC(=N)Cn1c(=O)sc2cc(Br)ccc21 [Compound 20], the “plant growth regulant observations” value (soybean plants; 0.112 kg/h) is reported as “Leaf alteration of new growth”.

In the case of COC(=N)Cn1c(=O)oc2ccccc21 [Compound 22], the “plant growth regulant observations” value (soybean plants; 0.56 kg/h) is reported as “Leaf alteration of new growth”.

For COC(=N)Cn1c(=O)sc2ccccc21 [Compound 24], the pre-emergent herbicidal rating (Crabgrass [1]; 1.12 kg/h) was 0 (0-24), the pre-emergent herbicidal rating (Crabgrass [1]; 5.6 kg/h) was 1 (25-49) and the pre-emergent herbicidal rating (Hemp Sesbania [2]; 1.12 kg/h) was 1 (25-49). For the same molecule, the pre-emergent herbicidal rating (Hemp Sesbania [2]; 5.6 kg/h) was 3 (75-100), the pre-emergent herbicidal rating (Panicum Spp [3]; 1.12 kg/h) was 0 (0-24) and the pre-emergent herbicidal rating (Panicum Spp [3]; 5.6 kg/h) was 0 (0-24). For the same molecule, the pre-emergent herbicidal rating (Rice [4]; 1.12 kg/h) was 0 (0-24), the pre-emergent herbicidal rating (Rice [4]; 5.6 kg/h) was 1 (25-49) and the pre-emergent herbicidal rating (Sorghum [5]; 1.12 kg/h) was 0 (0-24). The pre-emergent herbicidal rating (Sorghum [5]; 5.6 kg/h) was 0 (0-24), the pre-emergent herbicidal rating (Soybean [6]; 1.12 kg/h) was 2 (50-74) and the pre-emergent herbicidal rating (Soybean [6]; 5.6 kg/h) was 3 (75-100). For the same molecule, the pre-emergent herbicidal rating (Sugar Beet [7]; 1.12 kg/h) was 1 (25-49), the pre-emergent herbicidal rating (Sugar Beet [7]; 5.6 kg/h) was 3 (75-100) and the pre-emergent herbicidal rating (Wheat [8]; 1.12 kg/h) was 1 (25-49). The pre-emergent herbicidal rating (Wheat [8]; 5.6 kg/h) was 1 (25-49), the pre-emergent herbicidal rating (Wild Buckwheat [9]; 1.12 kg/h) was 1 (25-49) and the pre-emergent herbicidal rating (Wild Buckwheat [9]; 5.6 kg/h) was 3 (75-100). The post-emergent herbicidal rating (Crabgrass [10]; 0.056 kg/h, 2 WAT) was 0 (0-24), the post-emergent herbicidal rating (Crabgrass [10]; 0.28 kg/h, 4 WAT) was 0 (0-24) and the post-emergent herbicidal rating (Crabgrass [10]; 1.12 kg/h, 4 WAT) was 0 (0-24). The post-emergent herbicidal rating (Crabgrass [10]; 5.6 kg/h, 4 WAT) was 0 (0-24), the post-emergent herbicidal rating (Hemp Sesbania [11]; 0.056 kg/h, 2 WAT) was 0 (0-24) and the post-emergent herbicidal rating (Hemp Sesbania [11]; 0.28 kg/h, 4 WAT) was 1 (25-49). For the same molecule, the post-emergent herbicidal rating (Hemp Sesbania [11]; 1.12 kg/h, 4 WAT) was 2 (50-74), the post-emergent herbicidal rating (Hemp Sesbania [11]; 5.6 kg/h, 4 WAT) was 4 (100) and the post-emergent herbicidal rating (Panicum Spp [12]; 0.056 kg/h, 2 WAT) was 0 (0-24). The post-emergent herbicidal rating (Panicum Spp [12]; 0.28 kg/h, 4 WAT) was 0 (0-24), the post-emergent herbicidal rating (Panicum Spp [12]; 1.12 kg/h, 4 WAT) was 0 (0-24) and the post-emergent herbicidal rating (Panicum Spp [12]; 5.6 kg/h, 4 WAT) was 0 (0-24). The post-emergent herbicidal rating (Rice [13]; 0.056 kg/h, 2 WAT) was 0 (0-24), the post-emergent herbicidal rating (Rice [13]; 0.28 kg/h, 4 WAT) was 0 (0-24) and the post-emergent herbicidal rating (Rice [13]; 1.12 kg/h, 4 WAT) was 1 (25-49). The post-emergent herbicidal rating (Rice [13]; 5.6 kg/h, 4 WAT) was 0 (0-24), the post-emergent herbicidal rating (Sorghum [14]; 0.056 kg/h, 2 WAT) was 0 (0-24) and the post-emergent herbicidal rating (Sorghum [14]; 0.28 kg/h, 4 WAT) was 0 (0-24). The post-emergent herbicidal rating (Sorghum [14]; 1.12 kg/h, 4 WAT) was 1 (25-49), the post-emergent herbicidal rating (Sorghum [14]; 5.6 kg/h, 4 WAT) was 1 (25-49) and the post-emergent herbicidal rating (Soybean [15]; 0.056 kg/h, 2 WAT) was 1 (25-49). For the same molecule, the post-emergent herbicidal rating (Soybean [15]; 0.28 kg/h, 4 WAT) was 1 (25-49), the post-emergent herbicidal rating (Soybean [15]; 1.12 kg/h, 4 WAT) was 2 (50-74) and the post-emergent herbicidal rating (Soybean [15]; 5.6 kg/h, 4 WAT) was 2 (50-74). The post-emergent herbicidal rating (Sugar Beet [16]; 0.056 kg/h, 2 WAT) was 1 (25-49), the post-emergent herbicidal rating (Sugar Beet [16]; 0.28 kg/h, 4 WAT) was 1 (25-49) and the post-emergent herbicidal rating (Sugar Beet [16]; 1.12 kg/h, 4 WAT) was 2 (50-74). For the same molecule, the post-emergent herbicidal rating (Sugar Beet [16]; 5.6 kg/h, 4 WAT) was 3 (75-99), the post-emergent herbicidal rating (Wheat [17]; 0.056 kg/h, 2 WAT) was 0 (0-24) and the post-emergent herbicidal rating (Wheat [17]; 0.28 kg/h, 4 WAT) was 0 (0-24). For the same molecule, the post-emergent herbicidal rating (Wheat [17]; 1.12 kg/h, 4 WAT) was 0 (0-24), the post-emergent herbicidal rating (Wheat [17]; 5.6 kg/h, 4 WAT) was 1 (25-49) and the post-emergent herbicidal rating (Wild Buckwheat [18]; 0.056 kg/h, 2 WAT) was 1 (25-49). For the same molecule, the post-emergent herbicidal rating (Wild Buckwheat [18]; 0.28 kg/h, 4 WAT) was 1 (25-49), the post-emergent herbicidal rating (Wild Buckwheat [18]; 1.12 kg/h, 4 WAT) was 4 (100) and the post-emergent herbicidal rating (Wild Buckwheat [18]; 5.6 kg/h, 4 WAT) was 4 (100).

For COC(=N)Cn1c(=O)sc2ccc(Cl)cc21 [Compound 27], the post-emergent herbicidal rating (Crabgrass [10]; 0.28 kg/h, 2 WAT) was 0 (0-24), the post-emergent herbicidal rating (Crabgrass [10]; 1.12 kg/h, 4 WAT) was 0 (0-24) and the post-emergent herbicidal rating (Crabgrass [10]; 5.6 kg/h, 4 WAT) was 0 (0-24). The post-emergent herbicidal rating (Hemp Sesbania [11]; 0.28 kg/h, 2 WAT) was 0 (0-24), the post-emergent herbicidal rating (Hemp Sesbania [11]; 1.12 kg/h, 4 WAT) was 2 (50-74) and the post-emergent herbicidal rating (Hemp Sesbania [11]; 5.6 kg/h, 4 WAT) was 4 (100). The post-emergent herbicidal rating (Panicum Spp [12]; 0.28 kg/h, 2 WAT) was 0 (0-24), the post-emergent herbicidal rating (Panicum Spp [12]; 1.12 kg/h, 4 WAT) was 0 (0-24) and the post-emergent herbicidal rating (Panicum Spp [12]; 5.6 kg/h, 4 WAT) was 0 (0-24). The post-emergent herbicidal rating (Rice [13]; 0.28 kg/h, 2 WAT) was 0 (0-24), the post-emergent herbicidal rating (Rice [13]; 1.12 kg/h, 4 WAT) was 0 (0-24) and the post-emergent herbicidal rating (Rice [13]; 5.6 kg/h, 4 WAT) was 0 (0-24). The post-emergent herbicidal rating (Sorghum [14]; 0.28 kg/h, 2 WAT) was 0 (0-24), the post-emergent herbicidal rating (Sorghum [14]; 1.12 kg/h, 4 WAT) was 0 (0-24) and the post-emergent herbicidal rating (Sorghum [14]; 5.6 kg/h, 4 WAT) was 0 (0-24). The post-emergent herbicidal rating (Soybean [15]; 0.28 kg/h, 2 WAT) was 1 (25-49), the post-emergent herbicidal rating (Soybean [15]; 1.12 kg/h, 4 WAT) was 2 (50-74) and the post-emergent herbicidal rating (Soybean [15]; 5.6 kg/h, 4 WAT) was 3 (75-99). The post-emergent herbicidal rating (Sugar Beet [16]; 0.28 kg/h, 2 WAT) was 1 (25-49), the post-emergent herbicidal rating (Sugar Beet [16]; 1.12 kg/h, 4 WAT) was 3 (75-99) and the post-emergent herbicidal rating (Sugar Beet [16]; 5.6 kg/h, 4 WAT) was 3 (75-99). For the same molecule, the post-emergent herbicidal rating (Wheat [17]; 0.28 kg/h, 2 WAT) was 0 (0-24), the post-emergent herbicidal rating (Wheat [17]; 1.12 kg/h, 4 WAT) was 0 (0-24) and the post-emergent herbicidal rating (Wheat [17]; 5.6 kg/h, 4 WAT) was 1 (25-49). The post-emergent herbicidal rating (Wild Buckwheat [18]; 0.28 kg/h, 2 WAT) was 0 (0-24), the post-emergent herbicidal rating (Wild Buckwheat [18]; 1.12 kg/h, 4 WAT) was 3 (75-99) and the post-emergent herbicidal rating (Wild Buckwheat [18]; 5.6 kg/h, 4 WAT) was 4 (100). For the same molecule, the “plant growth regulant observations” value (soybean plants; 2.8 kg/h) was “Plants died”.

From patent US4228292A, “N-Substituted benzothiazolines and benzoxazolines and their use as herbicides and plant growth regulants” (Monsanto Company, priority 1978, dated 1980)
